How the values were obtained:
[1] = tested on: ERK (ERK1/2) phosphorylation in mouse neuroblastoma derived NEURO2A cell; experiment: ERK (ERK1/2) phosphorylation, Western Blotting, NEURO2A cells; format: cell-based; conditions: 5 μg/ml, 30 minutes, compared with s-Pls (FIG. 1)
Protocol: Neuronal cell lines (mouse neuroblastoma derived NEURO2A cell and human neuroblastoma derived SH-SY5Y cell) were cultivated in DMEM medium containing 10% FBS (fetal bovine serum) for 24 hours. […] At this stage, the same amount of protein (50 μg of protein extracts) was subjected to an analysis to compare phosphorylation of ERK (ERK ½) (p-ERK).
Neuronal cell lines (mouse neuroblastoma derived NEURO2A cell) were cultivated in DMEM medium containing 10% FBS (fetal bovine serum) for 24 hours. […] At this stage, the same amount of protein (50 μg of protein extracts) was subjected to an analysis to compare phosphorylation of ERK (ERK %) (p-ERK).

[2] = tested on: ERK (ERK1/2) phosphorylation in human neuroblastoma derived SH-SY5Y cell; experiment: ERK (ERK1/2) phosphorylation, Western Blotting, SH-SY5Y cells; format: cell-based; conditions: 5 μg/ml, 30 minutes, compared with s-Pls (FIG. 1)
Protocol: By using a neuronal cell line, a study was performed with respect to enhanced phosphorylation activities of ERK (ERK1/2) with compounds according to the present invention.
Neuronal cell lines (mouse neuroblastoma derived NEURO2A cell and human neuroblastoma derived SH-SY5Y cell) were cultivated in DMEM medium containing 10% FBS (fetal bovine serum) for 24 hours. Subsequently, they were cultivated in DMEM medium containing 2% FBS for overnight (18 hours), which were then processed with 5 μg/ml of s-Pls (scallop-derived Pls), Compound REO-002 according to the present invention, and Compound REO-003 according to the present invention for 30 minutes respectively, and cells were subjected to Western Blotting assay. At this stage, the same amount of protein (50 μg of protein extracts) was subjected to an analysis to compare phosphorylation of ERK (ERK ½) (p-ERK).
Neuronal cell lines (human neuroblastoma derived SH-SY5Y cell) were cultivated in DMEM medium containing 10% FBS (fetal bovine serum) for 24 hours. Subsequently, they were cultivated in DMEM medium containing 2% FBS for overnight (18 hours), which were then processed with 1 μg/ml, 5 μg/ml of Compounds REO-004-007 according to the present invention for 30 minutes respectively, and cells were subjected to Western Blotting assay. […]

**Q.** For CC/C=C\C/C=C\C/C=C\C/C=C\C/C=C\C/C=C\CCC(=O)O[C@@H](COCCCCCOc1ccccc1)COP(=O)(O)OCCN [REO-003], which “enhanced phosphorylation activities of ERK (ERK1/2) (p-ERK)” value [1] is on record?
**A.** Its value is “exhibit enhanced phosphorylation activities of ERK (ERK½) equivalent to s-Pls”.

**Q.** What about the “enhanced phosphorylation activities of ERK (ERK1/2) (p-ERK)” value [2] of the same compound?
**A.** Its value is “exhibit enhanced phosphorylation activities of ERK (ERK½) equivalent to s-Pls”.
